Tested on: IL-12 induced STAT4 phosphorylation mediated by TYK2/JAK2
Assay: IL-12 induced pSTAT4 in human PBMC
Type: cell-based
Conditions: 1 hr compound, 1.7 ng/mL IL-12 for 30 minutes
Method: Human PBMC were isolated from buffy coat and are stored frozen for assays as needed. […] 15 μL of compound or DMSO was added to the well at the desired concentrations and incubated at 1 hr at 37° C. 15 μL of stimulus (final concentration of 1.7 ng/mL IL-12) was added for 30 minutes prior to pSTAT4 and total STAT4 analysis using cell lysates prepared and analyzed by MSD reagents as per manufacturer protocol. The final DMSO concentration of compound in the assay was 0.1%. The IL-12 induced pSTAT4 assay evaluates the inhibition of IL-12 induced STAT4 phosphorlyation mediated by TYK2/JAK2 ([…] complex).

Row | IC50 [µM] | Compound
1 | < 0.1 | O=C(N[C@@H]1CCC1(F)F)c1cnn2c3c(c(Nc4cccn([C@H]5[C@@H]6COC[C@@H]65)c4=O)nc12)OCCN3 [Compound I-769]
2 | < 0.1 | CNc1ccc(-c2cc(NC)n3ncc(C(=O)N[C@@H]4C[C@@H]4F)c3n2)n2ccnc12 [Compound I-479]
3 | < 0.1 | CNc1cc(-c2cn(C3CCCC3)c3ncccc23)nc2c(C(=O)N[C@H]3CCC3(F)F)cnn12 [Compound I-685]
4 | < 0.1 | CNc1cc(Nc2cccn(-c3ncccc3F)c2=O)nc2c(C(=O)NC3CC[C@H]3OC)cnn12 (stereo partly shown) [Compound I-265]
5 | < 0.1 | CNc1cc(Nc2cccn([C@H]3CCCC[C@H]3O)c2=O)nc2c(C(=O)NC3CC[C@]3(C)OC)cnn12 (stereo partly shown) [Compound I-423]
6 | < 0.1 | CNc1ccc(-c2cc(NC)n3ncc(C(=O)N[C@H]4CC[C@H]4O)c3n2)n2ccnc12 [Compound I-485]
7 | < 0.1 | CNc1cc(-c2cn([C@@H]3CN(C)C[C@H]3OC)c3ncccc23)nc2c(C(=O)NC3CC[C@@H]3OC)cnn12 (stereo partly shown) [Compound I-645]
8 | < 0.1 | CNc1cc(-c2cn(C3CN(C)C3)c3ncccc23)nc2c(C(=O)NC3CC[C@@H]3F)cnn12 (stereo partly shown) [Compound I-513]
9 | < 0.1 | CNc1cc(Nc2cccn([C@H]3CC[C@H](OC)CC3)c2=O)nc2c(C(=O)N[C@@H]3C[C@H]3OC)cnn12 [I-31, 5-((1-((1r,4R)-4-Methoxycyclohexyl)-2-oxo-1,2-dihydropyridin-3-yl)amino)-N-((1R,2R)-2-methoxycyclopropyl)-7-(methylamino)pyrazolo[1,5-a]pyrimidine-3-carboxamide]
10 | < 0.1 | CNc1cc(-c2cn([C@H]3COC[C@@H]3OC)c3ncccc23)nc2c(C(=O)N[C@H]3CC[C@H]3F)cnn12 [Compound I-529]
11 | < 0.1 | CNc1cc(-c2cn([C@H]3CC(=O)N(C)C3)c3ncccc23)nc2c(C(=O)N[C@H]3CC[C@@H]3OC)cnn12 [Compound I-1024]
12 | < 0.1 | CNc1cc(-c2cn([C@H]3CCC[C@H]3F)c3ncccc23)nc2c(C(=O)N[C@H]3COC[C@H]3O)cnn12 [Compound I-722]
13 | < 0.1 | CNc1cc(-c2cnc3n([C@@H]4COC[C@H]4O)cccc2-3)nc2c(C(=O)N[C@H]3CCC3(F)F)cnn12 [Compound I-902]
14 | < 0.1 | CNc1cc(-c2cn(C3CN(C)C3)c3ncccc23)nc2c(C(=O)N[C@H]3CC[C@@H]3F)cnn12 [Compound I-514]
15 | < 0.1 | CNc1cc(Nc2cccn(C3CCOCC3)c2=O)nc2c(C(=O)NC3CCC3)cnn12 [Compound I-143]
16 | < 0.1 | CNc1cc(Nc2cccn(C3CCN(CCF)CC3)c2=O)nc2c(C(=O)NC3CC[C@@H]3F)cnn12 (stereo partly shown) [Compound I-236]
17 | < 0.1 | O=C(N[C@@H]1CCC1(F)F)c1cnn2c3c(c(-c4cn(C5COC5)c5ncccc45)nc12)OCCN3 [Compound I-772]
18 | < 0.1 | CNc1cc(Nc2cccn(-c3ccccn3)c2=O)nc2c(C(=O)N[C@H]3CC[C@@H]3F)cnn12 [Compound I-201]
19 | < 0.1 | CNc1cc(Nc2cccn([C@H]3C[C@H](OC)C3)c2=O)nc2c(C(=O)N[C@@H]3CC[C@H]3F)cnn12 [Compound I-178]
20 | < 0.1 | CNc1cc(Nc2cccn([C@H]3CC[C@H]3O)c2=O)nc2c(C(=O)NC3CCC3(F)F)cnn12 (stereo partly shown) [Compound I-286]

Row | IC50 [µM] | Compound
21 | > 1 | CNc1cc(-c2cnc3n(CC(=O)N4CCC4)cccc2-3)nc2c(C(=O)N[C@H]3CC[C@@H]3OC)cnn12 [Compound I-977]
22 | < 0.1 | CNc1cc(-c2cn([C@H]3COC[C@H]3F)c3ncccc23)nc2c(C(=O)N[C@H]3COC[C@H]3O)cnn12 [Compound I-726]
23 | < 0.1 | CNc1cc(-c2cn([C@H]3CCOC3)c3ncccc23)nc2c(C(=O)N[C@H]3CC[C@@H]3OC)cnn12 [Compound I-613]
24 | < 0.1 | CNc1cc(-c2cn([C@@H]3CN(C)C[C@H]3F)c3ncccc23)nc2c(C(=O)NC3CC[C@@H]3OC)cnn12 (stereo partly shown) [Compound I-642]
25 | < 0.1 | CNc1cc(Nc2cccn(-c3ccc(C)nc3)c2=O)nc2c(C(=O)NC3CCC3(F)F)cnn12 (stereo not shown) [Compound I-324]
26 | < 0.1 | CO[C@@H]1CC[C@H]1NC(=O)c1cnn2c3c(c(Nc4cccn(C(C)C)c4=O)nc12)OCCN3 [Compound I-760]
27 | < 0.1 | CNc1cc(-c2cn(C3COC3)c3ncccc23)nc2c(C(=O)NC3CC[C@@H]3F)cnn12 (stereo partly shown) [Compound I-507]
28 | < 0.1 | CNc1cc(-c2cn([C@@H]3CCN(C)C3)c3ncccc23)nc2c(C(=O)N[C@H]3CC[C@@H]3OC)cnn12 [Compound I-616]
29 | < 0.1 | CNc1cc(Nc2cccn([C@H]3[C@@H]4COC[C@@H]43)c2=O)nc2c(C(=O)N[C@@H]3C[C@H]3OC)cnn12 [I-25, 5-((1-((1R,5S,6r)-3-Oxabicyclo[3.1.0]hexan-6-yl)-2-oxo-1,2-dihydropyridin-3-yl)amino)-N-((1R,2R)-2-methoxycyclopropyl)-7-(methylamino)pyrazolo[1,5-a]pyrimidine-3-carboxamide]
30 | < 0.1 | CNc1cc(-c2cn([C@@H]3COC[C@@H]3F)c3ncccc23)nc2c(C(=O)N[C@H]3CC[C@H]3O)cnn12 [Compound I-571]
31 | < 0.1 | CNc1cc(-c2cn([C@@H]3CCOC3)c3ncccc23)nc2c(C(=O)NC3CC[C@@H]3OC)cnn12 (stereo partly shown) [Compound I-609]
32 | < 0.1 | CNc1cc(-c2cn([C@H]3CN(C)C[C@@H]3F)c3ncccc23)nc2c(C(=O)N[C@H]3CC[C@@H]3OC)cnn12 [Compound I-640]
33 | < 0.1 | CNc1cc(-c2cn(C(C)C)c3nnccc23)nc2c(C(=O)N[C@@H]3CC[C@H]3OC)cnn12 [Compound I-1009]
34 | 0.1 to 0.5 | CNc1cc(-c2cn([C@H]3C[C@@H](O)C3)c3ncccc23)nc2c(C(=O)NC3CC[C@H]3O)cnn12 (stereo partly drawn) [I-111, N-((cis-1,2)-2-Hydroxycyclobutyl)-5-(1-((1s,3R)-3-hydroxycyclobutyl)-1H-pyrrolo[2,3-b]pyridin-3-yl)-7-(methylamino)pyrazolo[1,5-a]pyrimidine-3-carboxamide]
35 | < 0.1 | CNc1cc(Nc2cccn(C(C)C)c2=O)nc2c(C(=O)NC3CC[C@@H]3F)cnn12 (mixture of isomers) [Compound I-145]
36 | < 0.1 | CNc1cc(Nc2cccn([C@H]3CCC[C@H](OC)C3)c2=O)nc2c(C(=O)N[C@H]3CC[C@@H]3F)cnn12 [Compound I-231]
37 | < 0.1 | CNc1cc(Nc2cccn([C@H]3C[C@@H](OC)C3)c2=O)nc2c(C(=O)NC3CC[C@@H]3OC)cnn12 (stereo partly shown) [Compound I-780]
38 | < 0.1 | CNc1cc(Nc2cccn([C@@H]3CCC[C@@H](OC)C3)c2=O)nc2c(C(=O)N[C@H]3CC[C@@H]3F)cnn12 [Compound I-228]
39 | < 0.1 | CNc1cc(Nc2cccn(C3CCN(CCF)CC3)c2=O)nc2c(C(=O)N[C@H]3CC[C@@H]3F)cnn12 [Compound I-237]
40 | < 0.1 | CO[C@@H]1CCC1NC(=O)c1cnn2c3c(c(Nc4cccn([C@H]5[C@@H]6COC[C@@H]65)c4=O)nc12)OCCN3 (stereo partly shown) [Compound I-762]

Row | IC50 [µM] | Compound
41 | < 0.1 | CNc1cc(-c2cn(C3CN(C)C3)c3ncccc23)nc2c(C(=O)NC3CC[C@@H]3OC)cnn12 (stereo partly shown) [Compound I-608]
42 | < 0.1 | CNc1cc(-c2cn([C@H]3C[C@@H](COC)C3)c3ncccc23)nc2c(C(=O)NC3CC[C@H]3O)cnn12 (stereo partly shown) [Compound I-912]
43 | < 0.1 | CNc1cc(Nc2cccn(C3CCOCC3)c2=O)nc2c(C(=O)NC3CC[C@@H]3F)cnn12 (stereo partly shown) [Compound I-188]
44 | < 0.1 | CNc1cc(-c2cnc3n([C@@H]4CN(C)C[C@H]4OC)cccc2-3)nc2c(C(=O)NC3CC[C@@H]3OC)cnn12 (stereo partly shown) [Compound I-943]
45 | < 0.1 | CNc1cc(-c2cn(CCOC)c3ncccc23)nc2c(C(=O)NC3CC[C@@H]3OC)cnn12 (stereo partly shown) [Compound I-795]
46 | < 0.1 | CNc1cc(Nc2cccn(C3CCOCC3)c2=O)nc2c(C(=O)N[C@@H]3CC[C@@H]3F)cnn12 [Compound I-193]
47 | < 0.1 | CNc1cc(-c2cn([C@@H]3CCC4(C3)OCCO4)c3ncccc23)nc2c(C(=O)N[C@H]3CC[C@@H]3OC)cnn12 [Compound I-806]
48 | < 0.1 | CNc1cc(Nc2cccn([C@H]3C[C@H](F)C3)c2=O)nc2c(C(=O)N[C@H]3CC[C@@H]3F)cnn12 [Compound I-165]
49 | < 0.1 | O=C(N[C@@H]1C[C@@H]1F)c1cnn2c3c(c(Nc4cccc5ocnc45)nc12)OCCN3 [Compound I-752]
50 | < 0.1 | CNc1cc(Nc2cccn([C@H]3CCCOC3)c2=O)nc2c(C(=O)NC3CC[C@@H]3F)cnn12 (stereo partly shown) [Compound I-197]
51 | < 0.1 | CNc1cc(Nc2cccn(C3CCOCC3)c2=O)nc2c(C(=O)NC3CCC3(F)F)cnn12 (stereo not shown) [Compound I-309]
52 | < 0.1 | CNc1cc(Nc2cccn([C@H]3CC[C@@H]3O)c2=O)nc2c(C(=O)N[C@@H]3CC[C@@]3(C)OC)cnn12 [Compound I-377]
53 | < 0.1 | CNc1cc(Nc2cccn([C@H]3[C@@H]4COC[C@@H]43)c2=O)nc2c(C(=O)NC3CCC3(F)F)cnn12 (stereo partly shown) [Compound I-306]
54 | < 0.1 | CNc1cc(Nc2cccn([C@H]3C[C@H](F)C3)c2=O)nc2c(C(=O)N[C@@H]3CC[C@H]3OC)cnn12 [I-57, 5-((1-((1r,3R)-3-Fluorocyclobutyl)-2-oxo-1,2-dihydropyridin-3-yl)amino)-N-((1R,2R)-2-methoxycyclobutyl)-7-(methylamino)pyrazolo[1,5-a]pyrimidine-3-carboxamide]
55 | < 0.1 | CNc1cc(Nc2cccn([C@@H]3C[C@H]3OC)c2=O)nc2c(C(=O)N[C@H]3CC[C@@H]3F)cnn12 [Compound I-155]
56 | < 0.1 | CNc1cc(-c2cnc3n([C@H]4COC[C@@H]4OC)cccc2-3)nc2c(C(=O)NC3CC[C@@H]3OC)cnn12 (stereo partly shown) [Compound I-880]
57 | < 0.1 | CNc1ccc(-c2cc(NC)n3ncc(C(=O)NC4CC[C@@H]4OC)c3n2)n2ccnc12 (stereo partly shown) [Compound I-488]
58 | < 0.1 | CNc1cc(-c2cn(C3CCCC3)c3ncccc23)nc2c(C(=O)N[C@@H]3CCC3(F)F)cnn12 [Compound I-681]
